# Reference: paper PMC7377474, “Preclinical characterization of CPL302-253, a selective inhibitor of PI3Kδ, as the candidate for the inhalatory treatment and prevention of Asthma” (PLoS ONE, 2020)
# “And” between values parts separate entries of the source, which are not always exact repeats. Identical values can stand only once.
# Assays:
# PI3Kδ = molecular target: T1, PI3Kδ (Homo sapiens, UniProt O00329); assay: ADP-Glo Kinase Assay; format: biochemical
# T1 construct: purchased Merck Millipore
# T1 sequence (O00329 whole entry): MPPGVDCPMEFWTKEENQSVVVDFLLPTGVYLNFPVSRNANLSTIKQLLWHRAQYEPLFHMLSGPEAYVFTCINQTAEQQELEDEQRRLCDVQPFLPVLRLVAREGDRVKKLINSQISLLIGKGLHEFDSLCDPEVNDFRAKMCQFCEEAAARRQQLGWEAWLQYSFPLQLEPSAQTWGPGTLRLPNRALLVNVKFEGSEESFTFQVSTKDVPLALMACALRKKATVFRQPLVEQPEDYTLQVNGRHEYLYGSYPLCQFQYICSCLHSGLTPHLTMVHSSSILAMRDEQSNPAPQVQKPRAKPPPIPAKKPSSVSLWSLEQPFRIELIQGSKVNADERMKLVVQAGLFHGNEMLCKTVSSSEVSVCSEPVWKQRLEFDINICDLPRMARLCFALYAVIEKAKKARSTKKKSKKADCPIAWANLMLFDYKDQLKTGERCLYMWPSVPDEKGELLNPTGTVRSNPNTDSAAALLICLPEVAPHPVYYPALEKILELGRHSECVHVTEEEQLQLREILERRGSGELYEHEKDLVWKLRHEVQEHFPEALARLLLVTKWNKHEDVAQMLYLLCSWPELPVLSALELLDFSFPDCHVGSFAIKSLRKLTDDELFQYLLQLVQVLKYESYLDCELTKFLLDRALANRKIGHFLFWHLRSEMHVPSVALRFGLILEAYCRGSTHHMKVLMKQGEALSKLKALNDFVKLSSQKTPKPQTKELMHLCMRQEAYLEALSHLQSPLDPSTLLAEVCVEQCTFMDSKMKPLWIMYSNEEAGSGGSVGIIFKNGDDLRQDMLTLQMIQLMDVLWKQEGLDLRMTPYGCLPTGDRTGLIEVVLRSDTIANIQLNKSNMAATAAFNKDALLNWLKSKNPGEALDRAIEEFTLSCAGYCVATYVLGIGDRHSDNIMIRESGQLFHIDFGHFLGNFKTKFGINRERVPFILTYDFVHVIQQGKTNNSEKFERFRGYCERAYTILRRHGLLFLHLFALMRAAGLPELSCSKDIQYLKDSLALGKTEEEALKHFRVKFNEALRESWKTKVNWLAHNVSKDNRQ
# T1 sequence (P27986 whole entry partner): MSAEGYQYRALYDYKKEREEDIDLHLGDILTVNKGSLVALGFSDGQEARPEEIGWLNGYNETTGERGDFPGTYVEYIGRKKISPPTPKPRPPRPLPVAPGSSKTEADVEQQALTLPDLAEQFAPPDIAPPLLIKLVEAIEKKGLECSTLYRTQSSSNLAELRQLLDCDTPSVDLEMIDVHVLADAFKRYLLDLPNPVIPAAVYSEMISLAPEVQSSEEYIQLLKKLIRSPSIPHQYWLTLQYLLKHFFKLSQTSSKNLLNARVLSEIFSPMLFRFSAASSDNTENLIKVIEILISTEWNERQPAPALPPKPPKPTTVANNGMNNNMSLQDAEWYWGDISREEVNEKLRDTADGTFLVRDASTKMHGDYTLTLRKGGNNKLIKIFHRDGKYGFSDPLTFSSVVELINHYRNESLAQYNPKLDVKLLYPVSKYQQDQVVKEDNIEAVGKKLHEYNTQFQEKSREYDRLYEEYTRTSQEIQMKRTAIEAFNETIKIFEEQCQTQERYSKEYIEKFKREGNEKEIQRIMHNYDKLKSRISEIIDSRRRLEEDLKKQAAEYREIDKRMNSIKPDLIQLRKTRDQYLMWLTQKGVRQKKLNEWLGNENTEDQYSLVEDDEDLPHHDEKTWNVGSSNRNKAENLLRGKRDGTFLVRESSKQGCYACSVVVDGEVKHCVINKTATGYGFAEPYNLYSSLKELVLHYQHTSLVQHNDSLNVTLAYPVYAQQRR
# Protocol: The potency and selectivity of CPL302-253 against different isotypes of class I PI3K were assessed using ADP-Glo Kinase Assay (Promega) according to manufacturer’s protocol. PI3Kα, PI3Kβ, PI3Kδ, PI3Kγ were purchased from Merck Millipore. The inhibition of examined kinases activity was evaluated by measuring their ability to converse ATP to ADP in the presence of decreasing doses of tested compound (from 400 μM to 0,00004 μM). Kinases were mixed with 1 mM PIP2:PS substrate (Phosphoinositol-4,5-bisphosphate (PIP2) lipid vesicles with phosphoserine (PS), Thermofisher Scientific) and 30 μM ATP in an assay buffer (50 mM HEPES pH 7.5,50 mM NaCl, 3 mM MgCl2, 25 μg/ml BSA). The mixture was incubated in the dark for 1 h at 25°C (PI3Kα and PI3Kδ) or at 30°C (PI3Kβ, PI3Kγ). Next ADP-Glo reagent 1 was added to stop the reaction and remove any remaining ATP. The samples were incubated for 40 min at 25°C. Subsequently the ADP-Glo reagent 2 was added and reactions were incubated for 40 min at 25°C. Finally, luminescence was assessed and the IC50 was calculated.
# CCKAR = molecular target: T2, CCKAR (Homo sapiens, UniProt P32238); assay: SafetyScan44; format: cell-based; conditions: 10 μM
# T2 construct: purchased DiscoverX (Eurofins) SafetyScan44
# T2 sequence (P32238 whole entry): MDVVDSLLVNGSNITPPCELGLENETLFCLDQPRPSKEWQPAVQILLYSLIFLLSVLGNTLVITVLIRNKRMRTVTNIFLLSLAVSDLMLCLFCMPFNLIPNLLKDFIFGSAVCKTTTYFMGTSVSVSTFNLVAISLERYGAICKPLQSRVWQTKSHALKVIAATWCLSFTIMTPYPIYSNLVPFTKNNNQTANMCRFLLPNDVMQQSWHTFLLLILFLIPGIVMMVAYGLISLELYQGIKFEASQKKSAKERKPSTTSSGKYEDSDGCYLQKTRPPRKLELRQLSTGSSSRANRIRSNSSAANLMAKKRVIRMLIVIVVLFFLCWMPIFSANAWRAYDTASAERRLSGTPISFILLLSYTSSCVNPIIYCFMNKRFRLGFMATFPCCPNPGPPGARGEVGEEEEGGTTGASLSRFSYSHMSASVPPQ
# Protocol: (§1) SafetyScan44 assay was performed by DiscoverX according to service provider’s protocol.
# HTR3A = molecular target: T3, HTR3A (Homo sapiens, UniProt P46098); assay: SafetyScan44; format: cell-based; conditions: 10 μM
# T3 construct: purchased DiscoverX (Eurofins) SafetyScan44
# T3 sequence (P46098 24-478): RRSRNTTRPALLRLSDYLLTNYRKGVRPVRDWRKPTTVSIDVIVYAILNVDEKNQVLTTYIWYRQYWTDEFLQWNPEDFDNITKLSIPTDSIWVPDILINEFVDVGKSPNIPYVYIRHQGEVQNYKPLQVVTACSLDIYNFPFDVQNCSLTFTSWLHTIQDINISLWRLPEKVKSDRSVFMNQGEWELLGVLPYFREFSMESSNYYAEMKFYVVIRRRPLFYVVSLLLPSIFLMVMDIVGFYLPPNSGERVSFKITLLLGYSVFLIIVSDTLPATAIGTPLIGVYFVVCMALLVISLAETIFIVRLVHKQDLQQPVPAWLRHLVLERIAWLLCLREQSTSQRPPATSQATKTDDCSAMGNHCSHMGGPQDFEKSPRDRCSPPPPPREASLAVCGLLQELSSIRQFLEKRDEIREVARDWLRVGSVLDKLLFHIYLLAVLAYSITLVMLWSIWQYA
# Protocol: as §1
# ADRB2 = molecular target: T4, ADRB2 (Homo sapiens, UniProt P07550); assay: SafetyScan44; format: cell-based; conditions: 10 μM
# T4 construct: purchased DiscoverX (Eurofins) SafetyScan44
# T4 sequence (P07550 whole entry): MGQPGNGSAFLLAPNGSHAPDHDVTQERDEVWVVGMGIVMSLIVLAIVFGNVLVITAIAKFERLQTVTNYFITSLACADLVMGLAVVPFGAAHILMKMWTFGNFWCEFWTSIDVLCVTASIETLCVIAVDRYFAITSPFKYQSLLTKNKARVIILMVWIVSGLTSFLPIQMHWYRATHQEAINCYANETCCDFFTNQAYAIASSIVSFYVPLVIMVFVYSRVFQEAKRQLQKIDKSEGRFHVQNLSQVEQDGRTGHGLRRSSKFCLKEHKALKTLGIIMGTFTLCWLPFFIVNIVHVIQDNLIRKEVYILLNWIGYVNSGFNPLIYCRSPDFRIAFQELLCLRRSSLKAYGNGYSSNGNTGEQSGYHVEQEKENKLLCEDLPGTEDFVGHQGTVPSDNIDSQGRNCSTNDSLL
# Protocol: as §1
# HTR2A = molecular target: T5, HTR2A (Homo sapiens, UniProt P28223); assay: SafetyScan44; format: cell-based; conditions: 10 μM
# T5 construct: purchased DiscoverX (Eurofins) SafetyScan44
# T5 sequence (P28223 whole entry): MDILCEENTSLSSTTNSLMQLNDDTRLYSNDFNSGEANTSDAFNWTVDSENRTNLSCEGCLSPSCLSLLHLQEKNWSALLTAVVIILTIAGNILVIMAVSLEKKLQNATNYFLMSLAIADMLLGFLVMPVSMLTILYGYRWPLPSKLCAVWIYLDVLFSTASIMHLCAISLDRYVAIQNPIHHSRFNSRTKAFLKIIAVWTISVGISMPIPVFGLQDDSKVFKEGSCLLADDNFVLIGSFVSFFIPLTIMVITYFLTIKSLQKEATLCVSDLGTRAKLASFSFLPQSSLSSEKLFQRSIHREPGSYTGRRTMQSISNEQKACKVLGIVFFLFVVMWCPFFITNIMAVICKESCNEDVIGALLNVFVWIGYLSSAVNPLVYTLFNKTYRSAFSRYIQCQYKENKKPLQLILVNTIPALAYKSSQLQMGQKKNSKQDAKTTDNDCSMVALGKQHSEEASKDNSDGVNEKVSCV
# Protocol: as §1
# COX1 = molecular target: T6, COX1 (Homo sapiens, UniProt P23219); assay: SafetyScan44; format: cell-based; conditions: 10 μM; Inhibitor mode
# T6 construct: purchased DiscoverX (Eurofins) SafetyScan44
# T6 sequence (P23219 24-599): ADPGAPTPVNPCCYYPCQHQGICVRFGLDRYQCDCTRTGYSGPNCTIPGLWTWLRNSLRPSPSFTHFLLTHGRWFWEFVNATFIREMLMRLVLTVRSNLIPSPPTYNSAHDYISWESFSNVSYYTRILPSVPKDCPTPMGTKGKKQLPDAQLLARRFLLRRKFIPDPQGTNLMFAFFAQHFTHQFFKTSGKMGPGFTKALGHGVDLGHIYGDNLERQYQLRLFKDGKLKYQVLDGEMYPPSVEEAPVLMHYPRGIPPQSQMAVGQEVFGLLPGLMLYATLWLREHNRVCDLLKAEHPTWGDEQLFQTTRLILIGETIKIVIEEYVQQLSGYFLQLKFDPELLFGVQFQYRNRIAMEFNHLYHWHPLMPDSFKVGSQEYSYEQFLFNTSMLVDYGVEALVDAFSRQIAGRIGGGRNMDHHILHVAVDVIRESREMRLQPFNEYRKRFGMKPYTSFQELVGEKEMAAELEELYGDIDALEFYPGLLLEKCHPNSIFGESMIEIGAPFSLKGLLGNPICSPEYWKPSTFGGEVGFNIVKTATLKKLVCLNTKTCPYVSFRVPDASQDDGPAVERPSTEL
# Protocol: as §1
# DAT = molecular target: T7, DAT (Homo sapiens, UniProt Q01959); assay: SafetyScan44; format: cell-based; conditions: 10 μM; Blocker mode
# T7 construct: purchased DiscoverX (Eurofins) SafetyScan44
# T7 sequence (Q01959 whole entry): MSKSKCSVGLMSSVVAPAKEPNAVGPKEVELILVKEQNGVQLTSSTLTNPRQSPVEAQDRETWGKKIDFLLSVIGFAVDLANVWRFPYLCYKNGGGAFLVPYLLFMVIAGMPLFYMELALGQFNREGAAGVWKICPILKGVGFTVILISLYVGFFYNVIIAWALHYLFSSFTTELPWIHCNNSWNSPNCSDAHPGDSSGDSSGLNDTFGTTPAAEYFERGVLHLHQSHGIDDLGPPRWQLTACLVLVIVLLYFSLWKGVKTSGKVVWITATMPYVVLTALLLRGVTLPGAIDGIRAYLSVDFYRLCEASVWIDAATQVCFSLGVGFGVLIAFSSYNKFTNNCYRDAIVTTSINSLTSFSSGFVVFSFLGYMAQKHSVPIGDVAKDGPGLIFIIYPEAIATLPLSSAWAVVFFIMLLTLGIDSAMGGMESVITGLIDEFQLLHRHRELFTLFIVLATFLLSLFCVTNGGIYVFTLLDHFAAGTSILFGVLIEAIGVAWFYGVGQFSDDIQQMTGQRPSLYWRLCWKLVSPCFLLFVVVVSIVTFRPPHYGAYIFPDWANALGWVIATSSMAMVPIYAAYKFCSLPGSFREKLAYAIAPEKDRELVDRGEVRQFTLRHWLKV
# Protocol: as §1
# [1] = test system: GPCR, transporters, ion channels, nuclear receptors, kinases and non-kinase enzymes; assay: SafetyScan44 panel, overall; format: cell-based; conditions: 10 μM; negative if not exceeding 70% of the control
# Protocol: as §1
# neutrophils = assay: Neutrophils IL-8 production; format: cell-based, human; conditions: 6 h, 1 μM
# Protocol: Neutrophils were isolated using EasySep Direct Human Neutrophil Isolation Kit (StemCell Technologies) from fresh whole blood of healthy donors by magnetic bead isolation according to manufacturer’s protocol. The cells were cultured in AIM V medium (Gibco). After 30 min pre-treatment with CPL302-253 (1 μM) neutrophils were stimulated with Cigarette Smoke Extract (CSE) (Murty Laboratories) at 100 μg/ml or LPS from E. coli O55:B5 (Sigma-Aldrich) at 1 μg/ml. After 6 h of incubation the culture supernatants were collected and IL-8 production was measured using IL-8 Human Uncoated ELISA Kit (Invitrogen) according to manufacturer’s protocol
# [2] = Pharmacokinetics after intratracheal instillation; format: in vivo; conditions: mouse
# Protocol: Female Balb/c mouse (20–25 g bodyweight) were purchased from Nofer Institute (Lodz, Poland). Animals were given 0.3 mg/kg or 1 mg/kg single dose of CPL302-253 by intratracheal instillation. The compound was suspended in 0.2% DMSO in saline. 5 animals per time-point were sacrificed 10 min, 30 min, 1 h, 2 h, 4 h, 7 h and 12 h after compound administration. The blood was collected by heart puncture to K2EDTA containing tubes and plasma samples were prepared by centrifugation. The Bronchoalveolar Lavage Fluid (BALF) was collected by flushing the lungs 2 times with 1 ml of saline. The lungs were homogenized in 10% DMSO solution in water. 3ml of the solution were used for 1 g of lung tissue. The samples were purified using acetonitrile and concentration of CPL302-253 was measured by LC-MS/MS with internal standard. The concentration of the compound is given per ml of plasma and BALF or g of lung tissue.
# LC-MS analysis of PK samples was performed using 1290 Infinity II UPLC (Agilent) with 6460 Triple Quad MS (Agilent) in the positive mode and MRM mode. […] Samples were eluted using a timed, linear gradient from 10% B at 0.3 min to 95% B at 1.5 min, then back to 10% at 2.5 min. The column was equilibrated for up to 5 min. The flow rate was 0.4 mL/min. The injection volume was 5 μL. Calibration curve was prepared in the range from 1 ng/mL to 2000 ng/mL by spiking 45 μL of plasma with 5 μL of concentrated standard solution. All plasma based standard solutions and studied samples (50 μL) were subsequently extracted with 150 μL of acetonitrile containing donepezil as internal standard and centrifuged to provide supernatant ready for analysis.
# [3] = test system: A549 cells co-cultured with CD8 T cells; assay: A549 CD8 T cell co-culture, IL-33 expression; format: cell-based, human; conditions: 1 μM, 72 h
# Protocol: A549 cells were seeded into 48-well plate. CD8 T cells were isolated from frozen human PBMC using EasySep Human CD8 T cell Isolation Kit (StemCell Technologies) according to manufacturer’s protocol. A549 were co-cultured with CD8 T cells at 1 to 5 ratios for 72 h. In some cultures, CD8 cells were activated with Human T Cell Activation/Expansion Kit (Miltenyibiotec) according to manufacturer’s protocol. After 72h CD8 cells were removed by rinsing with PBS. Adherent A549 cells were suspended in 100 μl RIPA and IL-33 was assessed in cell lysates using IL-33 Human Uncoated ELISA Kit (Invitrogen). Due to high variability in cell activation the data were normalized (measure for each experimental condition was divided by average of measures for all experimental conditions in the experiment).
# B cells = assay: B lymphocyte activation assay; conditions: for CD25 expression (Fig 3A), single replicates / ki-67 expression (Fig 3B), single replicates: activated B cells
# Protocol: B cells were isolated from human frozen PBMCs using EasySep Human CD19 Positive Isolation Kit (StemCell Technologies) according to manufacturers’ protocol. The cells were seeded in AIM V medium (Gibco). […] After 72 hours of culture the cells were stained with antibody againstCD25 (BC96, eBioscience) and ki-67 (Clone 20Raj1, Invitrogen) and analysed on FACSCalibur.
# [4] = 72 h, concentration 1 (unit not given)
# [5] = 72 h, concentration 10 (unit not given)
# [6] = 72 h, concentration 100 (unit not given)
# [7] = 72 h, concentration 1000 (unit not given)
# [8] = 72 h, concentration 10000 (unit not given)
structure (smiles),measurement,setting,value
CC(C)(C)N1CCN(Cc2cc3nc(-c4cncc5[nH]ccc45)cc(N4CCOCC4)n3n2)CC1 [CPL302-253],IC50,PI3Kδ,0.0122 µM
same,% Response CCKAR Agonist,CCKAR; Agonist mode,-2.8%
same,% Response CCKAR Antagonist,CCKAR; Antagonist mode,-2.4%
same,% Response HTR3A Blocker,HTR3A; Blocker mode,19.5%
same,% Response HTR3A Opener,HTR3A; Opener mode,-0.8%
same,% Response ADRB2 Agonist,ADRB2; Agonist mode,0.5%
same,% Response ADRB2 Antagonist,ADRB2; Antagonist mode,17.7%
same,% Response HTR2A Agonist,HTR2A; Agonist mode,-1.5%
same,% Response HTR2A Antagonist,HTR2A; Antagonist mode,11.5%
same,% Response COX1 Inhibitor,COX1,4.7%
same,% Response DAT Blocker,DAT,56.1%
same,inhibition or activation of the studied pathways in SafetyScan44,[1],neither inhibits nor activates any of the studied pathways
same,"IL-8 release (Fig 4B), single replicates",neutrophils; 1 μg/ml LPS,471 and 860 and 464
same,"IL-8 release (Fig 4A), single replicates",neutrophils; 100 μg/ml CSE,378 and 136 and 362
same,IL-8 production by neutrophils,neutrophils; after CSE or LPS stimulation,reduced IL-8 production
same,"concentration in Plasma, single animals","[2]; 0.3 mg/kg intratracheal, time 2 h",16.45
same,concentration in the blood compared with the lungs,[2]; in vivo,two orders of magnitude lower
same,distribution after intratracheal administration,[2]; in vivo,exclusively accumulated in the lung tissue and BAL with minor penetration to the circulation
same,"IL-33 expression, normalized (Fig 3D), single replicates","[3]; A549 CD8 A (activated CD8), divided by average of all conditions",0.4059 and 0.7122 and 0.4707
same,IL-33 expression in co-cultures,[3]; A549 with activated CD8 cells,strong inhibition of IL-33 expression
same,B cell proliferation (ki-67 expression),"B cells; B cells activated with ODN2006 and αIgM F(ab')2, 72 h",blocked also B cell proliferation
same,concentration at which inhibition of CD25 expression was observed,"B cells; B cells after BCR and TLR stimulation, 72 h",10 nM
same,"CD25 expression (Fig 3A), single replicates",B cells; [4],68 and 59 and 72 and 57
same,"ki-67 expression (Fig 3B), single replicates",B cells; [4],46 and 43.4 and 77
same,"CD25 expression (Fig 3A), single replicates",B cells; [5],52 and 60 and 66 and 49
same,"ki-67 expression (Fig 3B), single replicates",B cells; [5],48 and 23.5 and 54
same,"CD25 expression (Fig 3A), single replicates",B cells; [6],39 and 31 and 52 and 64 and 48
same,"ki-67 expression (Fig 3B), single replicates",B cells; [6],29 and 16.5 and 35
same,"CD25 expression (Fig 3A), single replicates",B cells; [7],9 and 22 and 24 and 38 and 20
same,"ki-67 expression (Fig 3B), single replicates",B cells; [7],23 and 2.4 and 24
same,"CD25 expression (Fig 3A), single replicates",B cells; [8],4 and 3 and 11 and 6
same,"ki-67 expression (Fig 3B), single replicates",B cells; [8],5 and 1
